Reference: ChEMBL document CHEMBL3351488, “Design, synthesis and biological evaluation of novel arylpiperazine derivatives on human prostate cancer cell lines” (Bioorg Med Chem Lett, 2015)

Key:
[1] = Cytotoxicity against human PC3 cells assessed as inhibition of cell viability after 24 hrs by CCK-8 assay; assay type: functional, cell-based; conditions: PC-3, 24 h
LNCaP = test: Cytotoxicity against human LNCAP cells assessed as inhibition of cell viability after 24 hrs by CCK-8 assay; assay type: functional, cell-based
DU-145 = test: Cytotoxicity against human DU145 cells assessed as inhibition of cell viability after 24 hrs by CCK-8 assay; assay type: functional, cell-based; conditions: DU-145, 24 h
[2] = Cytotoxicity against human RWPE1 cells assessed as inhibition of cell viability after 24 hrs by CCK-8 assay; assay type: cell-based; conditions: RWPE-1, 24 h

In the case of `COc1cc(OC)cc(OCc2ccc(CCN3CCN(c4ccccc4C)CC3)cc2)c1`, the IC50 [1] is reported as 30.2 µM, the IC50 (LNCaP) is reported as 35.8 µM and the IC50 (DU-145) is reported as 19.3 µM. For the same compound, the IC50 [2] was 35.6 µM.

`COc1cc(OC)cc(OCc2ccc(CCN3CCN(c4ccccc4)CC3)cc2)c1` gave an IC50 [1] of 31.2 µM, an IC50 (LNCaP) of over 50 µM and an IC50 (DU-145) of 25 µM. It also gave an IC50 [2] of over 50 µM.

Compound `COc1cc(OC)cc(OCc2ccc(CCN3CCN(c4ccccn4)CC3)cc2)c1` has an IC50 [1] of 25.6 µM, an IC50 (LNCaP) of 42.3 µM and an IC50 (DU-145) of 16.8 µM. It also gave an IC50 [2] of over 50 µM.

Compound `COc1cc(OC)cc(OCc2ccc(CCN3CCN(Cc4ccccc4)CC3)cc2)c1` has an IC50 [1] of 6.79 µM, an IC50 (LNCaP) of 6.07 µM and an IC50 (DU-145) of 5.83 µM. For the same compound, the IC50 [2] was over 50 µM.

Compound `COc1cc(OC)cc(OCc2ccc(CCN3CCN(c4ccc(C)cc4)CC3)cc2)c1` has an IC50 [1] of 48.2 µM, an IC50 (LNCaP) of 35.2 µM and an IC50 (DU-145) of 24.1 µM. It also gave an IC50 [2] of over 50 µM.

For `COc1cc(OC)cc(OCc2ccc(CCN3CCN(c4cccc(C)c4)CC3)cc2)c1`, the IC50 [1] was 30.6 µM, the IC50 (LNCaP) was 2.35 µM and the IC50 (DU-145) was 28.6 µM. For the same compound, the IC50 [2] was over 50 µM.

For `COc1cc(OC)cc(OCc2ccc(CCN3CCN(c4cc(C)ccc4C)CC3)cc2)c1`, the IC50 [1] was 31 µM, the IC50 (LNCaP) was 36.1 µM and the IC50 (DU-145) was 27.6 µM. The IC50 [2] was over 50 µM.

`COc1cc(OC)cc(OCc2ccc(CCN3CCN(c4ccccc4OC)CC3)cc2)c1` gave an IC50 [1] of 26.5 µM, an IC50 (LNCaP) of 26.3 µM and an IC50 (DU-145) of 30.5 µM. The IC50 [2] was 28.8 µM.

`CCOc1ccccc1N1CCN(CCc2ccc(COc3cc(OC)cc(OC)c3)cc2)CC1` showed an IC50 [1] of 27.1 µM, an IC50 (LNCaP) of over 50 µM and an IC50 (DU-145) of 27.2 µM. For the same compound, the IC50 [2] was over 50 µM.

`COc1ccc(N2CCN(CCc3ccc(COc4cc(OC)cc(OC)c4)cc3)CC2)cc1` gave an IC50 [1] of 32.9 µM, an IC50 (LNCaP) of over 50 µM and an IC50 (DU-145) of 19.2 µM. The IC50 [2] was over 50 µM.

Compound `COc1cc(OC)cc(OCc2ccc(CCN3CCN(c4cccc(OC)c4)CC3)cc2)c1` has an IC50 [1] of 25.3 µM, an IC50 (LNCaP) of 20 µM and an IC50 (DU-145) of 16.9 µM. It also gave an IC50 [2] of 39.9 µM.

`COc1cc(OC)cc(OCc2ccc(CCN3CCN(c4cc(Cl)ccc4OC)CC3)cc2)c1` gave an IC50 [1] of 27.1 µM, an IC50 (LNCaP) of 39.8 µM and an IC50 (DU-145) of 26.7 µM. It also gave an IC50 [2] of over 50 µM.

In the case of `COc1cc(OC)cc(OCc2ccc(CCN3CCN(c4ccccc4F)CC3)cc2)c1`, the IC50 [1] is reported as 25.3 µM, the IC50 (LNCaP) is reported as 7.25 µM and the IC50 (DU-145) is reported as 25.4 µM. For the same compound, the IC50 [2] was 35.4 µM.

Compound `COc1cc(OC)cc(OCc2ccc(CCN3CCN(c4ccc(F)cc4)CC3)cc2)c1` has an IC50 [1] of 28.8 µM, an IC50 (LNCaP) of 35 µM and an IC50 (DU-145) of 28.2 µM. It also gave an IC50 [2] of over 50 µM.

For `COc1cc(OC)cc(OCc2ccc(CCN3CCN(c4ccc(F)cc4F)CC3)cc2)c1`, the IC50 [1] was 35.4 µM, the IC50 (LNCaP) was over 50 µM and the IC50 (DU-145) was 24.2 µM. The IC50 [2] was over 50 µM.

For `COc1cc(OC)cc(OCc2ccc(CCN3CCN(c4ccccc4Cl)CC3)cc2)c1`, the IC50 [1] was 25.2 µM, the IC50 (LNCaP) was 32.5 µM and the IC50 (DU-145) was 23.2 µM. For the same compound, the IC50 [2] was over 50 µM.

Compound `COc1cc(OC)cc(OCc2ccc(CCN3CCN(c4ccc(Cl)cc4)CC3)cc2)c1` has an IC50 [1] of 18.9 µM, an IC50 (LNCaP) of over 50 µM and an IC50 (DU-145) of 12.7 µM. It also gave an IC50 [2] of over 50 µM.

In the case of `COc1cc(OC)cc(OCc2ccc(CCN3CCN(c4cccc(Cl)c4)CC3)cc2)c1`, the IC50 [1] is reported as 30.9 µM, the IC50 (LNCaP) is reported as 36.6 µM and the IC50 (DU-145) is reported as 27.1 µM. The IC50 [2] was over 50 µM.

For `COc1cc(OC)cc(OCc2ccc(CCN3CCN(c4cccc(Cl)c4Cl)CC3)cc2)c1`, the IC50 [1] was 18.4 µM, the IC50 (LNCaP) was over 50 µM and the IC50 (DU-145) was 30.2 µM. The IC50 [2] was 36.6 µM.

Compound `COc1cc(OC)cc(OCc2ccc(CCN3CCN(c4cc(Cl)ccc4C)CC3)cc2)c1` has an IC50 [1] of 32.2 µM, an IC50 (LNCaP) of 2.73 µM and an IC50 (DU-145) of 28 µM. It also gave an IC50 [2] of 36.5 µM.

With `COc1cc(OC)cc(OCc2ccc(CCN3CCN(c4ccc(Br)cc4)CC3)cc2)c1` the IC50 [1] was 25.6 µM, the IC50 (LNCaP) was over 50 µM and the IC50 (DU-145) was 29.5 µM. The IC50 [2] was over 50 µM.

With `COc1cc(OC)cc(OCc2ccc(CCN3CCN(c4ccccc4C(F)(F)F)CC3)cc2)c1` the IC50 [1] was 40.3 µM, the IC50 (LNCaP) was over 50 µM and the IC50 (DU-145) was 39.2 µM. The IC50 [2] was over 50 µM.

`COc1cc(OC)cc(OCc2ccc(CCN3CCN(c4ccc(C(F)(F)F)cc4)CC3)cc2)c1` showed an IC50 [1] of 23.8 µM, an IC50 (LNCaP) of over 50 µM and an IC50 (DU-145) of 28.5 µM. For the same compound, the IC50 [2] was over 50 µM.

Compound `COc1cc(OC)cc(OCc2ccc(CCN3CCN(c4ccc(C#N)cc4)CC3)cc2)c1` has an IC50 [1] of 27.6 µM, an IC50 (LNCaP) of over 50 µM and an IC50 (DU-145) of 46.3 µM. It also gave an IC50 [2] of 45.8 µM.

With `COc1cc(OC)cc(OCc2ccc(CCN3CCN(c4ccccc4S(C)(=O)=O)CC3)cc2)c1` the IC50 [1] was 9.42 µM, the IC50 (LNCaP) was 0.97 µM and the IC50 (DU-145) was 7.68 µM. It also gave an IC50 [2] of over 50 µM.

Work on `COc1ccccc1N1CCN(CC(O)COc2cccc3ccccc23)CC1` (centres undefined) [NAFTOPIDIL] yielded an IC50 [1] of 42.1 µM, an IC50 (LNCaP) of 22.4 µM and an IC50 (DU-145) of 34.6 µM. For the same compound, the IC50 [2] was over 50 µM.
